From patent US5446157A, “Boron difluoride compounds useful in photodynamic therapy and production of laser light” (priority 1993, dated 1995)

Key:
[1] = Solubility/fluorescence in various solvents (Tables I, II); format: physicochemical
Protocol: In addition, tests were conducted on the product in order to determine its solubility/fluorescence in various solvents. One property of the compositions described herein involves a variable degree of solubility/fluorescence relative to the solvents with which they are combined. Data showing a variety of different solvents combined with the product of Example I is presented below in Table I:
As in Example I, tests were conducted on the product in Example II in order to determine its fluorescence in various solvents. Data showing a variety of different solvents combined with the product of Example II is presented below in Table II: […]

[2] = Photostability under irradiation with 250 watt sun lamp; format: physicochemical
Protocol: In addition, experiments were conducted in order to determine the photostability of the product of Example I. A solution was prepared by mixing 0.1 g of the product with 50 ml of dichloromethane solvent. The solution was placed in a 100 ml round bottom flask and irradiated with light from a sun lamp (250 watts at a distance of approximately 8 inches from the flask). […] However, another solution was made by combining 0.1 g of product in 250 ml of CH3 OH and 10 ml of CH2 Cl2. Addition of the CH2 Cl2 was undertaken to obtain complete dissolution. The solution was placed in a […] and irradiated as described above. […] Thus, the use of different solvents will cause a variation in both the character and duration of fluorescence.
In addition, a further test was conducted in order to determine the photostability of the product. Specifically, 2.0 mg of the product in a 100 ml round bottom flask was dissolved in 50 ml of H2 O. The solution was then irradiated by light from a 250 watt sun lamp placed approximately 8 inches from the flask. UV spectral data was recorded periodically as shown below in Table III.

[3] = Laser characteristics of pyrromethene-BF2 complexes under flashlamp excitation (Table IV); settings: DMA/MeOH
[4] = Fluorescence (λf, quantum yield); format: physicochemical; settings: FIG. 2, in ethanol
Protocol: Instruments for spectroscopic measurements included: Perkin-Elmer 1600 FTIR, Varian Gernini 300 NMR, Hewlett-Packard 5985 (70 eV) GC-MS, Cary 17 (UV), and Perkin-Elmer LS-5B Luminescence spectrometer. A dye laser was constructed and operated in the non-flowing (static) mode and had no tuning capability. […] Laser energy outputs were measured with an accuracy of ±5% by a Scientech 365 power and energy meter.
Light absorption, luminescence, and laser activity properties for the dyes 7 are described in Table VI. Each recorded UV absorption was restricted to the highest wave length. Fluorescence quantum yields of the dyes were determined for ethanol solutions with excitation at 450 and 460 nm by reference to acridine orange, .PHI.0.46, in ethanol; for the dye 7p the reference was R-6G, <P 0.90. Melting points were obtained from a Mel-Temp II device and were uncorrected. The solvent for ^1 H NMR spectra was chloroform-d with tetramethylsilane as an internal standard. Elemental analyses were obtained from Midwest Micro Lab, Indianapolis, Ind. and Galbraith Laboratories, Inc., Knoxville, Tenn. Solvents were removed by rotary evaporation under reduced pressure unless indicated otherwise. Column chromatography was performed on silica gel. Molecular weights were confirmed by EI-MS for the pyrrole 4j 193 and for laser dyes 7d 346, 7e 374, 7g 374, 7i 342, 7j 314 and 7x 360. IR absorption data satisfactorily supported structure assignments for the laser dyes 7.
^[b] 2 × 10^-4 M in ethanol except where noted otherwise.

[5] = Ref [2], cited from earlier work; for λmax: 5 × 10^-6 M in ethanol
[6] = cited from earlier work; for λf: 2 × 10^-4 M in ethanol; for λf / .PHI.f: Ref [2]
[7] = P-BF2 dyes dispersed in acrylic co-polymer (solid-state laser)
Description: Any laser dye of the present invention may be substituted for the dye in any of the examples of that incorporated patent. The matrix generally includes solid polymeric host laser rods prepared using bulk polymerization of acrylic acid ester comonomers.

[8] = Photostability in methanol under flashlamp excitation pulses

CC1=CC(C)=[N+]2C1=C(C)c1c(C)cc(C)n1[B-]2(F)F [Compound 7a, 4,4-difluoro-1,3,5,7,8-pentamethyl-4-bora-3a,4a-diaza-s-indacene]
Color of Fluorescence, Room light ([1]; (CF3)2 CHOH): green | Color of Fluorescence, UV ([1]; (CF3)2 CHOH): green | Color of Solution ([1]; (CF3)2 CHOH): yellow | Solubility ([1]; (CF3)2 CHOH): soluble | Color of Fluorescence, Room light ([1]; CClF2 --CFCl2): green | Color of Fluorescence, UV ([1]; CClF2 --CFCl2): green | Color of Solution ([1]; CClF2 --CFCl2): yellow | Color of Solution ([1]; CF3 CH2 OH): green | Solubility ([1]; CH2 Cl2): soluble | Solubility ([1]; H2 O): insoluble | visual change in fluorescence (photostability) ([2]; 0.1 g in 50 ml dichloromethane, sun lamp, 22 days): No visual change in fluorescence was observed | fluorescence after irradiation (photostability) ([2]; 0.1 g in 250 ml CH3 OH and 10 ml CH2 Cl2, sun lamp, 8 days): no fluorescence was observed | Life [3]: ~50 kJ/L | wavelength of incident light that produced the greatest fluorescence [4]: 500-550 nm | λmax [5]: 493 nm | log ε [5]: 4.90 | λf [6]: 519 nm | .PHI.f [6]: 0.99

CCC1=C(C)C2=C(C)c3c(C)c(CC)c(C)n3[B-](F)(F)[N+]2=C1C [Compound 7c, 1,3,5,7,8-pentamethyl-2,6-diethylpyrromethene-BF2 complex]
solubility in the polymer matrix [7]: particularly soluble | λmax [5]: 517 nm | log ε [5]: 4.81 | λf [6]: 546 nm | .PHI.f [6]: 0.83

CCN=c1cc2oc3cc(NCC)c(C)cc3c(-c3ccccc3C(=O)OCC)c-2cc1C [Compound R-6G, reference compound]
fluorescence quantum yield of reference ([6]; reference standard): 0.90 | photostability in methanol [8]: 1500 pulses
